Experimental data reported in BindingDB's records for doi:10.1016/s0960-894x(98)00169-3 (Merck Research Laboratories, 1999).

Biological target: Beta-2 adrenergic receptor (Homo sapiens, UniProt P07550)
Assay: Compound was tested for agonist activity against cloned human beta-2 adrenergic receptor at a concentration of 1000 nM

Chain of Beta-2 adrenergic receptor (P07550 whole entry): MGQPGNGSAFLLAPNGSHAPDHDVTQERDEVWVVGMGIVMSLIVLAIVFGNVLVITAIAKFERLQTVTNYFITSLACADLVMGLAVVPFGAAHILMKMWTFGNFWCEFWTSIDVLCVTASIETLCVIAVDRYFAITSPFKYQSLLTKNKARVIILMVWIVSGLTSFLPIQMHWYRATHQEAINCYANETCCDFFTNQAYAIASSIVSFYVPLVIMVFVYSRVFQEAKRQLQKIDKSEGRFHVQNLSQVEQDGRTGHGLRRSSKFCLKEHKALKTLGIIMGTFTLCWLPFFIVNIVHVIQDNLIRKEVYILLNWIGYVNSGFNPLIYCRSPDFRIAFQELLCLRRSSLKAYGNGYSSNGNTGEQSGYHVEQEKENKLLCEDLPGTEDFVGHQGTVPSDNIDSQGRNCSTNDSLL

COc1ccc(CC[C@H](C)NC[C@@H](O)COc2ccc(O)cc2)cc1 [4-{(R)-2-Hydroxy-3-[(S)-3-(4-methoxy-phenyl)-1-methyl-propylamino]-propoxy}-phenol]
EC50: < 0.1 nM
